Consider 5 substances from patent US20100105626A1, “Novel Analogues of Antimicrobial and Anticancer Peptide Synthesized and Produced from Gaegurin 5” (PROMEDITECH, INC, priority 2006, published 2010).

Where no end group is shown, it is not given here. Bounds are passed on as bounds.

What is called IC50 is the concentration that gives 50% inhibition. A higher IC50 goes with lower potency.

Format in all cases: cell-based
Series [1] concerns Staphylococcus epidermis. Put plainly: Antimicrobial activity, MIC by standard broth microdilution. The conditions noted are these: Gram-positive. The protocol:
(§1) Antimicrobial activity was determined by the standard broth microdilution method by measuring the MIC values against diverse microorganisms. In brief, Luria-Bertani medium was used as a broth medium. 30 μl of sample (2 mg/ml) prepared from Example 1 and 270 μl of fluid medium were added to lane 1 well of 96-well microtiter plates and to remaining lanes of the wells, only 150 μl of medium was added thereto. 150 μl of sample solution in lane 1 was mixed with lane 2 to prepare diluted solution (×2). With similar diluting method to the above described method, serial dilution was performed to prepare 150 μl of diluted drug solution (×2) to the extent that the final drug concentration reached to the range from 1.6 to 200 μg/ml in respective well. 25 μl of the cell culture being grown to 10^6-10^8 colony forming unit/ml in 3 ml of broth was added to each well and the micro-titer plate was incubated for overnight at 37° C.
In general terms: In broth dilution the organism is exposed to a series of concentrations in liquid medium.

The test system of series [2] is Bacillus subtilis. The series is described as above. The conditions noted are these: Gram-positive. The protocol:
as §1

Series [3] deals with Shigella dysentariae. Described as above. The conditions noted are these: Gram negative. The protocol:
as §1

In series [4] the test system is Staphylococcus aureus. Described as above. The conditions noted are these: Gram-positive. The protocol: as §1
The subject of series [5] is Proteus mirabilis. The description is as above. The conditions noted are these: Gram negative. The protocol:
as §1

Series [6] concerns Micrococcus luteus. Described as above. The conditions noted are these: Gram-positive. The protocol:
as §1

The test system of series [7] is Salmonella typhimurium. Described as above. The conditions noted are these: Gram negative. The protocol: as §1
Series [8] has as its system Escherichia coli. Described as above. The conditions noted are these: Gram negative. The protocol: as §1
The test system of series [9] is Klebsiella pneumoniae. Described as above. The conditions noted are these: Gram negative. The protocol:
as §1

Series [10] deals with Pseudomonas aeruginosa. The description is as above. The conditions noted are these: Gram negative. The protocol:
as §1

In series [11] the test system is SK-MEL-2 (skin cancer cell line). An excerpt: (§2) In order to confirm the anticancer activity of the analogues prepared by Example 1 on A549 (lung cancer cell line, ATCC, U.S.A.), A498 (kidney cancer cell line, Korean Cell Line Bank, Korea), HCT116 (colon carcinoma cell line, Korean Cell Line Bank, Korea), MKN45 (stomach cell line, Korean Cell Line Bank, Korea), NCI-H630 (liver cancer cell line, Korean Cell Line Bank, Korea), PC-3 (prostatic carcinoma cell line, Korean Cell Line Bank, Korea), SK-MEL-2 (skin cancer cell line, Korean Cell Line Bank, Korea) and SK-OV-3 (human solid cancer cell line, Korean Cell Line Bank, Korea), the standard microculture MTT method was performed with the procedure described in the literature (Angelina Quintero et al., J Pharm Pharmaceut Sci, Vol. 2, No. 3, pp 108-112, 1999; Ashtosh K. Pathak et al., J. Am Coll Nutr., Vol. 21, No. 5, pp 416-421, 2002). Each cell line was poured into 96 well microtiter plates and cultivated at 37° C. for 24 hrs. When the cell reached to exponential growth phase, the test sample was added to each plates and each cell was inoculated into the plates added with both of dissolved and non-dissolved DMSO to culture for 3 days. 50 μl of MTT (2 mg/ml) (M5655, SIGMA, U.S.A.) was added thereto and cultured for 3 hrs. The supernatant was removed and the wells were shaken weakly to dissolve formazan crystals. 150 μl of DMSO was added thereto. The non-treated well with cell was set to blank and the wells non-treated with drug were set to standard based on the cell viability. The UV absorbance was measured by microplate reader (SAFIRE, Tecan, Austria) to calculate the cell viability at 570 nm. The inhibition rate of cell growth was calculated by following Math FIG. 1. inhibition rate of cell growth (%)={1−(absorbance of treated cells/absorbance of non-treated cells)}×100 Math Figure 1 The IC value of each cell was calculated by the amount of drug causing to 50% reduction of the absorbance comparing with that of non-treated cells.

For series [12], the system named is SK-OV-3 (human solid cancer cell line).
From the text: as §2

In series [13] the test system is A549 (lung cancer cell line).
From the text: as §2

Series [14] deals with HCT116 (colon carcinoma cell line).
From the text: as §2

The test system of series [15] is erythrocyte. The protocol:
3 ml of blood sample collected from healthy male was mixed with PBS (phosphate buffered saline, isotonic solution) with a ratio of 1:1 (v/v), centrifuged to remove buffy coat and blood plasma and washed with physiological saline solution three times to isolate pure erythrocyte. The erythrocyte was suspended in 20 ml of PBS and pre-incubated in water bath at 37° C. for 15 mins. […] of peptide solution was mixed with […] of erythrocyte solution in order to prepare various mixed solution containing various final concentrations of the peptides, i.e., 100, 50, […] and the solution was incubated in water bath at 37° C. for 15 mins. The supernatant was centrifuged with centrifuge and 100 ml of the supernatant was diluted with ImI of PBS to determine its absorbance at 550 nm. The percentage of hemolysis (%) was determined from the relative attenuation of the absorbance of sample compared with that of the suspension treated with 0.2% Triton X-100.

In series [16] the test system is MKN45 (stomach cell line).
From the text: as §2

With “FLGWLFKWASK-NH2 (C-terminus assumed) [W4,8-GGN5N11]”, the Minimal inhibitory concentration in [1] is 3.2 µg/mL; in series [2] it was 3.2 µg/mL; in [3] it was 12.5 µg/mL; in [4], 1.6 µg/mL; in series [5] it was greater than 200 µg/mL; in [6], 3.2 µg/mL. For the same substance, the Minimal inhibitory concentration is greater than 200 µg/mL in series [7], 50 µg/mL in [8], 50 µg/mL in series [9] and greater than 200 µg/mL in series [10].

In turn, “FLGWLFKWAWK-NH2 [model 27, F-L-G-W-L-F-K-W-A-W-K]” returned an IC50 in series [11] of 14 µM.

In the case of “FLKWLFKWAKK-NH2 [model 26, F-L-K-W-L-F-K-W-A-K-K]”, the IC50 in series [12] turned out to be 12.6 µM; in series [13] it was 14.5 µM; in series [14], 14.8 µM. In addition, in [15], the “hemolytic activity (in words)” value is on record as “much less hemolysis than the others”.

In the case of “FLGWLFKWASKVL-NH2 [W4,8-GGN5N13, F-L-G-W-L-F-K-W-A-S-K-V-L]”, the “hemolytic activity (in words)” value in [15] is on record as “potent hemolytic activity”.

Consider “FLWWLFKWAWK-NH2 [model 28, F-L-W-W-L-F-K-W-A-W-K]”, for which the IC50 was 13.2 µM in [11]; 14.6 µM in series [12]; 15.9 µM in [13]; 14.8 µM in series [14]; 13.8 µM in series [16].
